Test results published in patent publication US10292412B2, “High solubility natural sweetener compositions” (KRAFT FOODS GLOBAL BRANDS LLC, priority 2012, dated 2019).

Assays:
[1] = Example 3: solubility (1-5 scale) after seven days; ambient water, heated water or 0.45 micron filtered rebaudioside A solutions with citric acid and ethanol; assay type: physicochemical
Protocol: Several solutions including rebaudioside A were prepared to test the effect of heating and filtering on the solubility of rebaudioside A. The formulations are as follows: […]
The solutions for the ambient water experimentation were prepared by dissolving rebaudioside A in ambient water (about 68° F. to about 77° F.) using a magnetic stir bar. Citric acid and ethanol were then dissolved into the solution using a magnetic stir bar.
The solutions for the heated water experimentation were prepared by heating water to 150° F. Rebaudioside A was added and dissolved using a magnetic stir bar. The solution was removed from the heat and citric acid was added and dissolved by a magnetic stir bar. After the solution cooled to 100° F. or below, ethanol was added and stirred into the solution by a magnetic stirrer.
The solutions for the filtered rebaudioside A experimentation were prepared by first dissolving rebaudioside A in ambient water (about 68° F. to about 77° F.) using a magnetic stir bar. The solution was then passed through a 0.45 micron filter. Citric acid and ethanol were dissolved into the solution using a magnetic stir bar.
Solubility was measured according to the 1-5 scale in the table above after seven days. […]

[2] = Example 2: solubility of rebaudioside A in liquid concentrates with varying water, acid and alcohol; assay type: physicochemical; set-up: scale not given here
Protocol: Liquid concentrate formulations were prepared including varying levels of rebaudioside A, water, alcohol, and acid. The solubility was measured at various concentrations of each of the components and the results are included in the tables below: […]

solubility after seven days ([1]; ambient water, 5 wt % rebaudioside A, all ethanol/acid conditions tested except high ethanol (30% by volume) and high acid (30% by weight)): crystallized
solubility after seven days ([1]; ambient water, 10 wt % rebaudioside A, high ethanol (30% by volume) and high acid (30% by weight)): failed
solubility after seven days ([1]; ambient water, filtered at 0.45 micron, 5 wt % rebaudioside A, all points except low acid/low ethanol): passed
solubility after seven days ([1]; heated water (150° F.), 5 wt % rebaudioside A, all ethanol/acid points): passed
solubility after seven days ([1]; heated water (150° F.), 10 wt % rebaudioside A, all ethanol/acid points): passed
solubility after seven days ([1]; heated water (150° F.), 15 wt % rebaudioside A, low ethanol (10%)/low acid (10%)): failed
solubility after seven days ([1]; heated water (150° F.), 15 wt % rebaudioside A, medium ethanol (20%)/low acid): failed
Response 1 Solubility ([2]; Water/Citric Acid/Ethanol (190 Proof)/RebA 0.00/0/92.44/7.5600 ml): 5
Response 1 Solubility ([2]; Water/Citric Acid/Ethanol (190 Proof)/RebA 0.00/21.92/77.48/0.6048 ml): 1
Response 1 Solubility ([2]; Water/Citric Acid/Ethanol (190 Proof)/RebA 39.71/32.88/19.85/7.5600 ml): 1
Response 1 Solubility ([2]; Water/Citric Acid/Ethanol (190 Proof)/RebA 47.96/0/47.96/4.0824 ml): 1
Response 1 Solubility ([2]; Water/Citric Acid/Ethanol (190 Proof)/RebA 59.56/32.88/0.00/7.5600 ml): 2
Response 1 Solubility ([2]; Water/Citric Acid/Propylene Glycol/RebA 0.00/0/92.44/7.5600 ml): Insoluble
Response 1 Solubility ([2]; Water/Citric Acid/Propylene Glycol/RebA 0.00/0/99.40/0.6048 ml): 1
Response 1 Solubility ([2]; Water/Citric Acid/Propylene Glycol/RebA 0.00/21.92/77.48/0.6048 ml): Insoluble
Response 1 Solubility ([2]; Water/Citric Acid/Propylene Glycol/RebA 33.13/0/66.26/0.6048 ml): 1
Response 1 Solubility ([2]; Water/Citric Acid/Propylene Glycol/RebA 33.13/10.96/55.30/0.6048 ml): 1
Response 1 Solubility ([2]; Water/Citric Acid/Propylene Glycol/RebA 39.71/32.88/19.85/7.5600 ml): Insoluble
Response 1 Solubility ([2]; Water/Citric Acid/Propylene Glycol/RebA 47.96/0/47.96/4.0824 ml): 2
Response 1 Solubility ([2]; Water/Citric Acid/Propylene Glycol/RebA 49.65/24.66/19.87/5.8212 ml): 2
Response 1 Solubility ([2]; Water/Citric Acid/Propylene Glycol/RebA 55.30/10.96/33.13/0.6048 ml): 1
Response 1 Solubility ([2]; Water/Citric Acid/Propylene Glycol/RebA 59.56/32.88/0.00/7.5600 ml): 2
Response 1 Solubility ([2]; Water/Citric Acid/Propylene Glycol/RebA 59.61/16.44/19.87/4.0824 ml): 2
Response 1 Solubility ([2]; Water/Citric Acid/Propylene Glycol/RebA 66.26/0/33.13/0.6048 ml): 1
Response 1 Solubility ([2]; Water/Citric Acid/Propylene Glycol/RebA 66.52/32.88/0.00/0.6048 ml): 1
Response 1 Solubility ([2]; Water/Citric Acid/Propylene Glycol/RebA 69.57/8.22/19.87/2.3436 ml): 3
Response 1 Solubility ([2]; Water/Citric Acid/Propylene Glycol/RebA 79.48/16.44/0.00/4.0824 ml): 3
Response 1 Solubility ([2]; Water/Citric Acid/Propylene Glycol/RebA 92.44/0/0.00/7.5600 ml): 5
Response 1 Solubility ([2]; Water/Citric Acid/Propylene Glycol/RebA 99.40/0/0.00/0.6048 ml): 3
Response 1 Solubility ([2]; Water/Malic Acid/Ethanol (200 Proof)/RebA 0.00/0/92.44/7.5600 ml): Insoluble
Response 1 Solubility ([2]; Water/Malic Acid/Ethanol (200 Proof)/RebA 0.00/0/99.40/0.6048 ml): Insoluble
Response 1 Solubility ([2]; Water/Malic Acid/Ethanol (200 Proof)/RebA 0.00/10.96/88.44/0.6048 ml): 5
Response 1 Solubility ([2]; Water/Malic Acid/Ethanol (200 Proof)/RebA 55.30/10.96/33.13/0.6048 ml): 1
Response 1 Solubility ([2]; Water/Phosphoric Acid/Ethanol (190 Proof)/RebA 0.00/0.00/92.44/7.56 ml): Insoluble
Response 1 Solubility ([2]; Water/Phosphoric Acid/Ethanol (190 Proof)/RebA 0.00/0.00/99.40/0.60 ml): Insoluble
Response 1 Solubility ([2]; Water/Phosphoric Acid/Ethanol (190 Proof)/RebA 0.00/30.81/61.63/7.56 ml): Insoluble
Response 1 Solubility ([2]; Water/Phosphoric Acid/Ethanol (190 Proof)/RebA 0.00/33.13/66.26/0.60 ml): 1
Response 1 Solubility ([2]; Water/Phosphoric Acid/Ethanol (190 Proof)/RebA 0.00/47.96/47.96/4.08 ml): Insoluble
Response 1 Solubility ([2]; Water/Phosphoric Acid/Ethanol (190 Proof)/RebA 0.00/66.26/33.13/0.60 ml): 1
Response 1 Solubility ([2]; Water/Phosphoric Acid/Ethanol (190 Proof)/RebA 0.00/92.44/0.00/7.56 ml): Insoluble
Response 1 Solubility ([2]; Water/Phosphoric Acid/Ethanol (190 Proof)/RebA 0.00/99.40/0.00/0.60 ml): Insoluble
Response 1 Solubility ([2]; Water/Phosphoric Acid/Ethanol (190 Proof)/RebA 15.99/15.99/62.21/5.82 ml): 2
Response 1 Solubility ([2]; Water/Phosphoric Acid/Ethanol (190 Proof)/RebA 15.99/39.10/39.10/5.82 ml): 2
Response 1 Solubility ([2]; Water/Phosphoric Acid/Ethanol (190 Proof)/RebA 15.99/62.21/15.99/5.82 ml): Insoluble
Response 1 Solubility ([2]; Water/Phosphoric Acid/Ethanol (190 Proof)/RebA 30.81/61.63/0.00/7.56 ml): Insoluble
Response 1 Solubility ([2]; Water/Phosphoric Acid/Ethanol (190 Proof)/RebA 33.13/0.00/66.26/0.60 ml): 1
Response 1 Solubility ([2]; Water/Phosphoric Acid/Ethanol (190 Proof)/RebA 33.13/33.13/33.13/0.60 ml): 1
Response 1 Solubility ([2]; Water/Phosphoric Acid/Ethanol (190 Proof)/RebA 33.13/66.26/0.00/0.60 ml): Insoluble
Response 1 Solubility ([2]; Water/Phosphoric Acid/Ethanol (190 Proof)/RebA 39.10/15.99/39.10/5.82 ml): 2
Compound: C=C1C[C@@]23CC[C@H]4[C@@](C)(CCC[C@@]4(C)C(=O)O[C@@H]4O[C@H](CO)[C@@H](O)[C@H](O)[C@H]4O)[C@@H]2CC[C@]1(O[C@@H]1O[C@H](CO)[C@@H](O)[C@H](O[C@@H]2O[C@H](CO)[C@@H](O)[C@H](O)[C@H]2O)[C@H]1O[C@@H]1O[C@H](CO)[C@@H](O)[C@H](O)[C@H]1O)C3 [Reb A, rebaudioside A]
